Reference: patent US7074785B2, “Δ1-pyrrolines used as pesticides” (Bayer Cropscience AG, priority 2001, dated 2006)
Like-named read-outs stand apart in the source and are kept apart here.

Experiments:
[1] = logP determination by HPLC (reversed-phase C18, EEC Directive 79/831 Annex V.A8); format: physicochemical
Procedure: The logP values stated in the above tables and Preparation Examples are determined in accordance with EEC Directive 79/831 Annex V.A8 by HPLC (High Performance Liquid Chromatography) using a reversed-phase column (C 18). Temperature: 43° C.
In the acidic range at pH 2.3 the determination takes place using 0.1% aqueous phosphoric acid and acetonitrile as the mobile phases; linear gradient from 10% acetonitrile to 90% acetonitrile. Corresponding results are marked in the tables by “a)”
In the neutral range at pH 7.5 the determination takes place using 0.01 molar aqueous phosphate buffer solution and acetonitrile as the mobile phases; linear gradient from 10% acetonitrile to 90% acetonitrile. Corresponding results are marked in the tables by “b)”
Calibration is carried out using unbranched alkan-2-ones (having 3 to 16 carbon atoms), with known logP values (the logP values determined on the basis of the retention times using linear interpolation between two successive alkanones).

[2] = system: larvae of the mustard beetle (Phaedon cochleariae); assay: Phaedon larvae test; conditions: in Brassica oleracea, 168 h, read-out: Kill rate in % after 7 d, 100 ppm, cabbage leaves dipped, Phaedon cochleariae larvae
[3] = system: greenhouse red spider mite (Tetranychus urticae); assay: Tetranychus test (OP resistant/dip treatment); format: in vivo; conditions: 168 h, read-out: Kill rate in % after 7 d, 100 ppm, bean plants dipped, Tetranychus urticae OP-resistant
Procedure: Tetranychus Test (OP Resistant/Dip Treatment)
Solvent: 7 parts by weight of dimethylformamide
After the desired period of time, the effect in % is determined.

[4] = system: army worm (Spodoptera frugiperda) caterpillars; assay: Spodoptera frugiperda test; format: in vivo; conditions: in Brassica oleracea, 168 h, read-out: Kill rate in % after 7 d, 100 ppm, cabbage leaves dipped, Spodoptera frugiperda
[5] = HPLC, acidic range pH 2.3, 0.1% aqueous phosphoric acid/acetonitrile; marked a), read-out: log P (pH 2.3)
[6] = HPLC, neutral range pH 7.5, 0.01 molar phosphate buffer/acetonitrile; marked b), read-out: log P (pH 7.5)
[7] = reversed-phase C18 HPLC column; HPLC, acidic range pH 2.3, 0.1% aqueous phosphoric acid/acetonitrile; marked a), read-out: log P (pH 2.3)

SMILES	chromatographic logP [1, 5]	pest or weed control at 100 ppm [2] [%]	pest or weed control at 100 ppm [3] [%]	chromatographic logP [1, 6]	pest or weed control at 100 ppm [4] [%]	chromatographic logP [1, 7]
CCC(CC)OC(=O)Nc1ccc(-c2ccc(C3CCC(c4c(F)cccc4F)=N3)cc2)cc1 (stereo not shown) [Compound 24]	3.76	≥ 85	≥ 85			
O=C(Nc1ccc(-c2ccc(C3CCC(c4c(F)cccc4F)=N3)cc2)cc1)OCCc1ccccc1 (stereo not shown) [Compound 25]	3.62	≥ 85		4.64	≥ 95	
O=C(Nc1ccc(-c2ccc(C3CCC(c4c(F)cccc4F)=N3)cc2)cc1)OCc1ccco1 (stereo not shown) [Compound 26]	3.01		≥ 85	4.1	≥ 95	
O=C(Nc1ccc(-c2ccc(C3CCC(c4c(F)cccc4F)=N3)cc2)cc1)OCc1cccs1 (stereo not shown) [Compound 27]	3.28	≥ 85	≥ 85	4.36	≥ 95	
CCCCC(CC)COCCOC(=O)Nc1ccc(-c2ccc(C3CCC(c4c(F)cccc4F)=N3)cc2)cc1 (stereo not shown) [Compound 28]	5.13		≥ 85	5.97	≥ 95	
CCCN(CCC)CCOC(=O)Nc1ccc(-c2ccc(C3CCC(c4c(F)cccc4F)=N3)cc2)cc1 (stereo not shown) [Compound 29]	1.74	≥ 85	≥ 85	5.52		
CN(C)CCOC(=O)Nc1ccc(-c2ccc(C3CCC(c4c(F)cccc4F)=N3)cc2)cc1 (stereo not shown) [Compound 30]	1.37		≥ 85		≥ 95	
COCCOC(=O)Nc1ccc(-c2ccc(C3CCC(c4c(F)cccc4F)=N3)cc2)cc1 (stereo not shown) [Compound 31]	2.24			3.45	≥ 95	
CCOCCOC(=O)Nc1ccc(-c2ccc(C3CCC(c4c(F)cccc4F)=N3)cc2)cc1 (stereo not shown) [Compound 32]	2.52	≥ 85	≥ 85	3.75		
O=C(Nc1ccc(-c2ccc(C3CCC(c4c(F)cccc4F)=N3)cc2)cc1)OCCOCCOCCCC(F)(F)C(F)(F)F (stereo not shown) [Compound 34]	3.7		≥ 85	4.73	≥ 95	
COC(=O)N(C)c1ccc(-c2ccc(C3CCC(c4c(F)cccc4F)=N3)cc2)cc1 (stereo not shown) [Compound 35]	2.58	≥ 85	≥ 85	3.79		
CCOC(=O)N(C)c1ccc(-c2ccc(C3CCC(c4c(F)cccc4F)=N3)cc2)cc1 (stereo not shown) [Compound 37]	2.92	≥ 85		4.16	≥ 95	
COC(=O)Nc1ccc(Br)cc1 [III-1, methyl 4-bromophenylcarbamate]	2.27					
CCCOC(=O)Nc1ccc(Br)cc1 [III-2, n-propyl 4-bromophenylcarbamate]	3.12					
CCCCOC(=O)N(C)c1ccc(Br)cc1 [III-3, n-butyl-4-bromophenyl(methyl)carbamate]	3.88					
O=C1OCCN1c1ccc(Br)cc1 [III-4, 3-(4-bromophenyl)-1,3-oxazolidin-2-one]						2.02
O=C(Nc1ccc(Br)cc1)N1CCOCC1 [III-5, N-(4-bromophenyl)-4-morpholinecarboxamide]						1.75
Nc1ccc(-c2ccc(C3CCC(c4c(F)cccc4F)=N3)cc2)cc1 (stereo not shown) [VII-1, 4′-[5-(2,6-difluorophenyl)-3,4-dihydro-2H-pyrrol-2-yl]-1 ′-biphenyl-4-amine]						1.25
